Source: ChEMBL document CHEMBL3988442, “University of Dundee, Small-Polar-MMV Screening Library” (2021)

Legend:
[1] = microbe, parasite or virus in culture; conditions: Mycobacterium tuberculosis, 72 h, read-out: pIC50 (converted)
[2] = microbe, parasite or virus in culture; conditions: Mycobacterium tuberculosis, 96 h, read-out: pIC50 (converted)

SMILES: O=C(CCCc1ccccc1)NCc1ccccn1
- IC50 [1]: 168 µM
- IC50 [2]: 234 µM

SMILES: CCCn1nnc(NC(=O)COc2ccc(Cl)cc2)n1
- IC50 [1]: 237 µM
- IC50 [2]: 272 µM

SMILES: O=C(COC(=O)c1cccs1)NCc1ccco1
- IC50 [1]: 204 µM
- IC50 [2]: > 501 µM

SMILES: Nc1nnc(SCc2ccccc2F)s1
- IC50 [1]: 248 µM
- IC50 [2]: 157 µM

SMILES: CN(C)CCC(=O)c1ccc(F)cc1
- IC50 [1]: 92.2 µM
- IC50 [2]: 177 µM

SMILES: CCOc1ccccc1NC(=O)CSc1c[nH]nn1
- IC50 [1]: > 501 µM
- IC50 [2]: 195 µM

SMILES: COc1cccc(OCC(=O)NCC2CCCO2)c1 (stereo not given)
- IC50 [1]: 194 µM
- IC50 [2]: 145 µM

SMILES: CC1CCN(C(CN)c2cccs2)CC1 (stereo not given)
- IC50 [1]: 217 µM
- IC50 [2]: 263 µM

SMILES: NC(=O)c1ccc(-c2nc(C3CCCC3)no2)o1
- IC50 [1]: 338 µM
- IC50 [2]: 228 µM

SMILES: COc1ccc(C(=O)Nc2nonc2NC(C)=O)cc1
- IC50 [1]: > 501 µM
- IC50 [2]: 96.4 µM

SMILES: CNCc1nc(C(F)(F)F)no1
- IC50 [1]: > 501 µM
- IC50 [2]: > 501 µM

SMILES: COCCNC(=O)c1cc(-c2ccccc2F)no1
- IC50 [1]: 195 µM
- IC50 [2]: 127 µM

SMILES: CCc1ccc2c(c1)[C@@H](N)CCO2
- IC50 [1]: > 501 µM
- IC50 [2]: > 501 µM

SMILES: CN(C)C(=O)COC(=O)c1ccc2ccccc2n1
- IC50 [1]: 142 µM
- IC50 [2]: > 501 µM

SMILES: Cc1ccc(-n2nnnc2NCC2CCCO2)cc1 (stereo not given)
- IC50 [1]: 113 µM
- IC50 [2]: 119 µM

SMILES: Cc1cc(NC(C)c2ccco2)nc(N)n1 (stereo not given)
- IC50 [1]: > 501 µM
- IC50 [2]: > 501 µM

SMILES: Cn1nc(CCN)c2ccccc21
- IC50 [1]: 57.8 µM
- IC50 [2]: 197 µM

SMILES: CCC(NC(=O)NCCCOC)C(C)C (stereo not given)
- IC50 [1]: > 501 µM
- IC50 [2]: > 501 µM

SMILES: CCCN(C)S(=O)(=O)NC(C)c1ccc(OC)c(F)c1 (stereo not given)
- IC50 [1]: 153 µM
- IC50 [2]: 163 µM

SMILES: Cc1ccccc1OCCCNC(=O)NC[C@@H](C)O
- IC50 [1]: > 501 µM
- IC50 [2]: > 501 µM

SMILES: O=C(c1cccc2cc[nH]c12)N1CCSCC1
- IC50 [1]: > 501 µM
- IC50 [2]: > 501 µM

SMILES: CN(C)C(=O)c1csc(-c2ccccc2)n1
- IC50 [1]: > 501 µM
- IC50 [2]: > 501 µM

SMILES: CC(C)c1cccc(CN[C@H](CO)C(C)C)n1
- IC50 [1]: 303 µM
- IC50 [2]: > 501 µM

SMILES: CC(C)Oc1ccc(C(CN)N(C)C)cc1 (stereo not given)
- IC50 [1]: 133 µM
- IC50 [2]: 225 µM

SMILES: CSCc1cccc(CNC(=O)c2cc[nH]n2)c1
- IC50 [1]: 308 µM
- IC50 [2]: > 501 µM

SMILES: Cc1cncc(NS(=O)(=O)CCc2ccccc2)c1
- IC50 [1]: 314 µM
- IC50 [2]: > 501 µM

SMILES: CN1CCN(C(=O)Cn2ccc3ccc(Br)cc32)CC1
- IC50 [1]: 132 µM
- IC50 [2]: 173 µM

SMILES: CCOC(=O)c1ccccc1N1C(=O)C=CC1=O
- IC50 [1]: 60.4 µM
- IC50 [2]: 83.7 µM

SMILES: CC(CN)CNC(=O)c1ccc(C(F)(F)F)cc1 (stereo not given)
- IC50 [1]: > 501 µM
- IC50 [2]: > 501 µM

SMILES: O=C(Cn1ccc2ccccc21)N1CCCC1
- IC50 [1]: 60 µM
- IC50 [2]: 162 µM

SMILES: Nc1nccnc1C(=O)NCc1cc(Br)cs1
- IC50 [1]: 93.5 µM
- IC50 [2]: 132 µM

SMILES: O=C(c1cccc(-n2cccn2)n1)N1CCCC1
- IC50 [1]: 59.6 µM
- IC50 [2]: 163 µM

SMILES: Ic1nnnn1-c1ccccc1
- IC50 [1]: 147 µM
- IC50 [2]: 108 µM

SMILES: CC(C)(C)C(=O)CCN1CCCCC1
- IC50 [1]: 204 µM
- IC50 [2]: 290 µM

SMILES: Cc1ccc(C(=O)NCc2ccc3c(c2)OCCO3)o1
- IC50 [1]: 115 µM
- IC50 [2]: 71.5 µM

SMILES: CCCn1nnnc1NCc1ccsc1
- IC50 [1]: 171 µM
- IC50 [2]: 132 µM

SMILES: O=C(CSc1cnn[nH]1)OCc1ccccc1
- IC50 [1]: 67.9 µM
- IC50 [2]: > 501 µM

SMILES: CN(CCN1CCCC1)S(=O)(=O)c1ccccc1
- IC50 [1]: 208 µM
- IC50 [2]: > 501 µM

SMILES: NCC(c1cccs1)N1CCCC1 (stereo not given)
- IC50 [1]: 156 µM
- IC50 [2]: 494 µM

SMILES: COc1ccc(C2CCN(CC(=O)NC(N)=O)C2)cc1 (stereo not given)
- IC50 [1]: > 501 µM
- IC50 [2]: > 501 µM

SMILES: N#Cc1cccnc1N1CCOC(c2nccs2)C1 (stereo not given)
- IC50 [1]: 138 µM
- IC50 [2]: > 501 µM

SMILES: Cc1cc(C)cc(OCC(=O)N2CCOCC2)c1
- IC50 [1]: 155 µM
- IC50 [2]: > 501 µM

SMILES: NC(=O)c1ccsc1NC(=O)CCN1CCCC1
- IC50 [1]: 204 µM
- IC50 [2]: 248 µM

SMILES: CN(Cc1cccc(C#N)c1)C(=O)C1CC1
- IC50 [1]: > 501 µM
- IC50 [2]: 133 µM

SMILES: Cc1ccccc1-c1nnn(CC(O)CC(F)(F)F)n1 (stereo not given)
- IC50 [1]: 102 µM
- IC50 [2]: 126 µM

SMILES: COCCCOC1CN(C(=O)c2ccc(Cl)cn2)C1
- IC50 [1]: 2.73 µM
- IC50 [2]: 84.6 µM

SMILES: CC(CNCC(F)(F)CO)c1ccccc1 (stereo not given)
- IC50 [1]: > 501 µM
- IC50 [2]: > 501 µM

SMILES: N[C@H]1CC[C@H](Oc2ncccc2Cl)CC1
- IC50 [1]: 125 µM
- IC50 [2]: > 501 µM

SMILES: OCC(O)CSCc1nc(-c2ccc(Cl)cc2)no1 (stereo not given)
- IC50 [1]: 385 µM
- IC50 [2]: 260 µM

SMILES: CC(C)CN1C(=O)C(N)c2ccccc21 (stereo not given)
- IC50 [1]: > 501 µM
- IC50 [2]: > 501 µM

SMILES: NCC(=O)N1CCCC(CCc2ccccc2F)C1 (stereo not given)
- IC50 [1]: 271 µM
- IC50 [2]: 256 µM

SMILES: c1csc(CSCCNC2=NCCN2)c1
- IC50 [1]: > 501 µM
- IC50 [2]: > 501 µM

SMILES: COc1ccc2c(c1)CN(C(=O)C1CCCOC1)CC2 (stereo not given)
- IC50 [1]: > 501 µM
- IC50 [2]: > 501 µM

SMILES: COc1ccc(CSCC(N)=O)cc1Br
- IC50 [1]: 241 µM
- IC50 [2]: 262 µM

SMILES: Cc1cc(C)c(C)c(OCC(=O)N2CCN(C)CC2)c1
- IC50 [1]: 111 µM
- IC50 [2]: 129 µM

SMILES: CN(Cc1ccc(Br)cc1)C(=O)CSc1nc(N)n[nH]1
- IC50 [1]: 152 µM
- IC50 [2]: > 501 µM

SMILES: Cc1nn(CCCN)c(C)c1Br
- IC50 [1]: 266 µM
- IC50 [2]: > 501 µM

SMILES: NCc1nc(-c2cccc(C(F)(F)F)c2)no1
- IC50 [1]: 262 µM
- IC50 [2]: 130 µM

SMILES: N#Cc1cccnc1N1CCCNCC1
- IC50 [1]: 480 µM
- IC50 [2]: > 501 µM

SMILES: Cn1cc(Br)cc1C(=O)NCC1CCCO1 (stereo not given)
- IC50 [1]: 225 µM
- IC50 [2]: > 501 µM

SMILES: CC1CCN(C(=O)c2cnn(-c3cccnc3)c2)CC1
- IC50 [1]: 307 µM
- IC50 [2]: 67.4 µM

SMILES: COc1ccccc1CC(=O)Nc1ncc(C(N)=O)s1
- IC50 [1]: > 501 µM
- IC50 [2]: > 501 µM

SMILES: Cc1cccc(NCCNC(=O)c2ccccc2)n1
- IC50 [1]: > 501 µM
- IC50 [2]: > 501 µM

SMILES: NC(=O)c1ccccc1NC(=O)CSc1ccccn1
- IC50 [1]: 116 µM
- IC50 [2]: > 501 µM

SMILES: CN(C)C(=O)c1cc(-c2cccs2)on1
- IC50 [1]: > 501 µM
- IC50 [2]: 254 µM

SMILES: Cn1cc(Cn2nc(-c3ccco3)oc2=O)cn1
- IC50 [1]: 187 µM
- IC50 [2]: > 501 µM

SMILES: CCC[C@H]1CN(S(=O)(=O)c2ccnn2CCC)C[C@@H]1N
- IC50 [1]: 283 µM
- IC50 [2]: > 501 µM

SMILES: CN(CCC#N)C(=O)COC(=O)c1ccccc1Br
- IC50 [1]: 139 µM
- IC50 [2]: > 501 µM

SMILES: O=C1C=CC(=O)N1Cc1ccc(Cl)cc1
- IC50 [1]: 129 µM
- IC50 [2]: 174 µM

SMILES: Cc1noc(C)c1CNC(=O)c1csc(S(N)(=O)=O)c1
- IC50 [1]: > 501 µM
- IC50 [2]: > 501 µM

SMILES: COc1ccc(OCCSCC(=O)NCCC#N)cc1
- IC50 [1]: 195 µM
- IC50 [2]: 288 µM

SMILES: CC(NC(=O)CSc1nc(=O)[nH]n1C)c1cccs1 (stereo not given)
- IC50 [1]: 175 µM
- IC50 [2]: 234 µM

SMILES: CC(C)(O)Cn1nnc(-c2cccs2)n1
- IC50 [1]: > 501 µM
- IC50 [2]: > 501 µM

SMILES: COc1cc(C(=O)CCN(C)C)cc(OC)c1OC
- IC50 [1]: 196 µM
- IC50 [2]: 338 µM

SMILES: CC(NC(=O)CCNC(=O)c1ccco1)c1cccs1 (stereo not given)
- IC50 [1]: > 501 µM
- IC50 [2]: > 501 µM

SMILES: CCCc1noc(C(C)Nc2cccc(C(N)=O)c2)n1 (stereo not given)
- IC50 [1]: 56.4 µM
- IC50 [2]: 156 µM

SMILES: NC(c1cncc(Br)c1)C1CC1 (stereo not given)
- IC50 [1]: > 501 µM
- IC50 [2]: > 501 µM

SMILES: COCCNC(=O)c1cc2cc(C)ccc2n1C
- IC50 [1]: 173 µM
- IC50 [2]: > 501 µM

SMILES: Cn1c(CO)nnc1SCC=Cc1ccccc1
- IC50 [1]: 240 µM
- IC50 [2]: 289 µM

SMILES: Cc1ccccc1N1C(=O)C=CC1=O
- IC50 [1]: 157 µM
- IC50 [2]: 254 µM
